Data: patent US9636299B2, “Method for treating diabetic retinopathy” (XAVIER UNIVERSITY OF LOUISIANA, priority 2012, dated 2017)
Residues, ends and D or L forms follow the SMILES beside them.

Columns and labels:
[1] = Corneal permeability of topical 1% apoEdp eye drops in mice, UPLC-MS of pooled aqueous and vitreous humor; type: in vivo; set-up: key to Meas'd conc. / Total: *: No peak detected
Method: The apoEdp peptide (SEQ ID NO:3) is rich in cationic amino acids, and the inventor postulated that it may cross the cornea into the anterior and posterior chambers of the eye. […] Thus, apoEdp can be used for non-invasive treatment of posterior eye diseases.
A one percent (1%) solution comprising apoEdp in PBS was prepared. This solution was applied bilaterally via eyedropper to the eyes of mice (n=4). The mice were sacrificed at 0, 1, 2, or 3 hours after application of the solution, and the eyes were enucleated. The aqueous and vitreous humor from each eye was collected and pooled, mixed with 1 mL of 0.1% formic acid solution, and allowed to stand for 5 minutes. The samples were then filtered with a 0.2 μm filter and analyzed with the Acquity UPLC system (Waters Corp., Milford, Mass.) with mass spectrophotometric detection.
Initially, the mass range for the peptide was scanned several peaks corresponding to different charged states of the peptide were found. These peaks included 484.9 m/z, 604.4 m/z, and 805.6 m/z. The 484.9 peak was used for the analysis because it was the strongest peak. For the UPLC analysis, a 2.1 mm×100 mm×1.7 μm BEH300 C4 column was used. A two-component mobile phase was used with component 1 (C1): 0.1% formic Acid, and Component 2 (C2): Acetonitrile with 0.1% formic acid. The flow rate was 0.2 mL/min and gradient elution was used with a linear gradient (see TABLE 2). Retention time for the peptide was 4.6 minutes.

[2] = test system: endothelial nitric oxide synthase (eNOS); assay: eNOS expression in high glucose-treated hRMECs (Western blot); type: cell-based, human; details: 100 μM apoEdp, 30 minute treatment
From the text: Cell Culture. Primary cultures of human retina microvascular endothelial cells (hRMECs) were purchased from the Applied Cell Biology Research Institute and grown on attachment factor-coated plates in cell systems complete (CSC) medium (Cell Systems, Kirkland, Wash.) supplemented with 20% fetal bovine serum, culture boost (animal derived growth factors) and bac-off (antibiotics). The primary hRMECs were used in their passages 4 to 6. The 18-a.a. apoE mimetic peptide apoEdp (SEQ ID NO:3, Ac-LRKLRKRLLLRKLRKRLL-amide), derived from the human apolipoprotein E receptor-binding region (see SED ID NO:1) between residues 141 and 149, was synthesized (Genemed, Arlington, Tex.) with a purity of greater than 95%. The apoEdp peptide was dissolved in phosphate-buffered saline (“PBS”) at a concentration appropriate for further experimental use. […]
Western Blotting. […] The total protein concentration was determined using a BCA protein assay kit (Pierce, Rockford, Ill.). […] To ensure the equal loading of protein in each lane, each membrane was stripped and re-probed with an antibody against β-actin, and the chemiluminescence was detected as described previously. After scanning the blots with a flatbed scanner, band intensities were analyzed using ImageJ (NIH) and the relative intensity values were normalized to control values. […]

HS = assay: Streptozotocin-induced diabetic mice, loss of HS; type: in vivo, mouse; details: either 14-day eye drop application or systemic i/p injection
Method: Streptozotocin (STZ) induced diabetes. Twelve week old C57Bl/6 mice were used for this study. Mice were induced to have diabetes by intraperitoneal injection of 170 μg/g of streptozotocin (Sigma Aldrich, St. Louis, Mo.). Controls were injected with a vehicle (0.01M sodium citrate buffer). On the third day after STZ treatment, mice tail veins were bled to test the hyperglycemic status using blood sugar detection kit (Lifescan; Johnson & Johnson, Milpitas, Calif.). Mice with blood sugar levels of >300 mg/dL on the third day after STZ treatment were considered diabetic. Eye drop treatment containing 1% apoEdp or vehicle PBS was continued 4 times a day for 14 consecutive days. Intra-peritoneal (i/p) injection containing 40 mg/kg of apoEdp or vehicle control PBS was administered once daily for 14 consecutive days. On the 15th day post-treatment, mice were euthanized, their eyes enucleated, and the retinas dissected out to use for mRNA or Western blot analysis.
Increased vascular permeability in diabetic retinopathy (DR) is reported to result in a concomitant increase of VEGF. The VEGF pathway is known to play a role in breakdown of the BRB through a mechanism involving the down regulation of tight junction proteins in the retinal microvasculature (20).

[3] = OD (right eye), 0 h after topical 1% apoEdp
[4] = OD (right eye), 1 h after topical 1% apoEdp
[5] = OD (right eye), 2 h after topical 1% apoEdp
[6] = OD (right eye), 3 h after topical 1% apoEdp
[7] = OS (left eye), 1 h after topical 1% apoEdp
[8] = OS (left eye), 2 h after topical 1% apoEdp
[9] = OS (left eye), 3 h after topical 1% apoEdp

## CC(=O)N[C@@H](CC(C)C)C(=O)N[C@@H](CCCNC(=N)N)C(=O)N[C@@H](CCCCN)C(=O)N[C@@H](CC(C)C)C(=O)N[C@@H](CCCNC(=N)N)C(=O)N[C@@H](CCCCN)C(=O)N[C@@H](CCCNC(=N)N)C(=O)N[C@@H](CC(C)C)C(=O)N[C@@H](CC(C)C)C(=O)N[C@@H](CC(C)C)C(=O)N[C@@H](CCCNC(=N)N)C(=O)N[C@@H](CCCCN)C(=O)N[C@@H](CC(C)C)C(=O)N[C@@H](CCCNC(=N)N)C(=O)N[C@@H](CCCCN)C(=O)N[C@@H](CCCNC(=N)N)C(=O)N[C@@H](CC(C)C)C(=O)N[C@@H](CC(C)C)C(N)=O [apoEdp, Ac-LRKLRKRLLLRKLRKRLL-amide] (Ac-LRKLRKRLLLRKLRKRLL-NH2)
[1]; [3]
  Meas'd conc.: *
  Total: *
[1]; [4]
  Meas'd conc.: 0.022 µg/mL
  Total: 22.2 ng
[1]; [5]
  Meas'd conc.: 0.006 µg/mL
  Total: 5.9 ng
[1]; [6]
  Meas'd conc.: 0.036 µg/mL
  Total: 36.3 ng
[1]; OS (left eye), 0 h after topical 1% apoEdp
  Total: *
[1]; OS (left eye), 0 h after topical 1% apoEdp in PBS, pooled aqueous and vitreous humor
  Meas'd conc.: *
[1]; [7]
  Meas'd conc.: *
  Total: *
[1]; [8]
  Meas'd conc.: 0.004 µg/mL
  Total: 3.89 ng
[1]; [9]
  Meas'd conc.: 0.058 µg/mL
  Total: 58.08 ng
[1]; topical 1% apoEdp
  Detection of topically-applied apoEdp inside the eye (cornea penetration): detected inside the eye in as little as one hour after application
[2]
  Elevated expression of eNOS induced by 30 mM D-glucose: prevented
HS
  Loss of HS: reversed
